Experimental findings from patent US8501961B2, “HIV protease inhibitors and methods for using” (priority 2008, dated 2013) are described below.

One assay has as its target HIV-1 protease (Human immunodeficiency virus type 1 group M subtype B (isolate HXB2) (HIV-1), UniProt P04585). The experiment in a line: HIV-1 protease enzyme inhibitory assay (protocol of Toth and Marshall). The following applies: for potency compared to 3i: vs 3i; for fold reduction in enzymatic inhibitory potency with respect to 3d: vs 3d. It counts as biochemical. From the text: In another embodiment, inhibitors described herein contain a (R)-hydroxyethylamine sulfonamide isostere with a p-methoxysulfonamide as the P2′-ligand and various designed cyclic ethers and polyethers as the P2-ligands. In another embodiment, assays are described herein for evaluating compounds. Illustrative inhibitors described herein are initially evaluated in an enzyme inhibitory assay utilizing a protocol described by Toth and Marshall (Toth, M. V.; Marshall, G. R. A simple, continuous fluorometric assay for HIV protease. Int. J. Pep. Protein Res. 1990, 36, 544-550). […]

A further assay has as its system HIV-1-LAI. The experiment in a line: Antiviral assay in MT-2 cells, inhibition of HIV-1-elicited cytopathic effect. It counts as cell-based. The following applies: Human immunodeficiency virus 1, T-lymphoid, MT-2 human T-lymphoid cells exposed to HIV-1-LAI.
[1] abbreviates: Table 1, mean values of at least four determinations.
[2] abbreviates: Table 3, means of at least two experiments.

The structures appear in SMILES notation.

Regarding `COc1ccc(S(=O)(=O)N(CC(C)C)C[C@@H](O)[C@H](Cc2ccccc2)NC(=O)OC2COCCN(C)CCOC2)cc1` [Inhibitor 3m, (1S,2R)-{1-Benzyl-2-hydroxy-3-[isobutyl(4-methoxybenzenesulfonyl)amino]propyl}carbamic acid N-methyl-1,7-dioxa-4-azocyclodecan-9-yl ester], the Ki on HIV-1 protease (setting [1]) is 19 ± 0.76 nM. The “potency compared to 3i” value at HIV-1 protease was “no change in inhibitory activity”. In addition, in the assay with HIV-1-LAI, the IC50 is more than 1000 nM.
`COc1ccc(S(=O)(=O)N(CC(C)C)C[C@@H](O)[C@H](Cc2ccccc2)NC(=O)O[C@@H]2CCCCOC2)cc1` [Inhibitor 3e, (1S,2R)-{1-Benzyl-2-hydroxy-3-[isobutyl(4-methoxybenzenesulfonyl)amino]propyl}carbamic acid (R)-oxepan-3-yl ester] had a Ki on HIV-1 protease (setting [1]) of 0.81 ± 0.12 nM. Also, on HIV-1 protease, the “fold reduction in enzymatic inhibitory potency with respect to 3d” value was approximately 30 fold.
As to `COc1ccc(S(=O)(=O)N(CC(C)C)C[C@@H](O)[C@H](Cc2ccccc2)NC(=O)OC2CCCCCC2)cc1` [Inhibitor 3g, (1S,2R)-{1-Benzyl-2-hydroxy-3-[isobutyl(4-methoxybenzenesulfonyl)amino]propyl}carbamic acid Cycloheptanyl ester], the affinity on HIV-1 protease (setting [1]) corresponds to a Ki of 27 ± 0.81 nM.
Regarding `COc1ccc(S(=O)(=O)N(CC(C)C)C[C@@H](O)[C@H](Cc2ccccc2)NC(=O)O[C@H]2CCCOCC2)cc1` [Inhibitor 3f, (1S,2R)-{1-Benzyl-2-hydroxy-3-[isobutyl(4-methoxybenzenesulfonyl)amino]propyl}carbamic acid (S)-oxepan-4-yl ester], the affinity on HIV-1 protease (setting [1]), expressed as Ki, was 0.74 ± 0.15 nM. Besides, at HIV-1 protease, the “fold reduction in enzymatic inhibitory potency with respect to 3d” value was approximately 30 fold.
As for `COc1ccc(S(=O)(=O)N(CC(C)C)C[C@@H](O)[C@H](Cc2ccccc2)NC(=O)OC2COCCOCCOCCOC2)cc1` [Inhibitor 3j, (1S,2R)-{1-Benzyl-2-hydroxy-3-[isobutyl(4-methoxybenzenesulfonyl)amino]propyl}carbamic acid 3,6,9,12-tetraoxacyclotridecan-1-yl ester], the Ki on HIV-1 protease (setting [1]) was determined as 33 ± 1.9 nM.
On to `COc1ccc(S(=O)(=O)N(CC(C)C)C[C@@H](O)[C@H](Cc2ccccc2)NC(=O)O[C@H]2CC3OCO[C@@H]3C2)cc1` (stereo partly drawn) [Inhibitor 126, (1′S,2′R)-{1′-Benzyl-2′-hydroxy-3′-[isobutyl(4-methoxybenzenesulfonyl)amino]propyl} carbamic acid (1β,2β,4α)-1,2-(methylenedioxy)cyclopent-4-yl ester], for which the Ki on HIV-1 protease (setting [2]) was 0.4 ± 0.04 nM. Also, at HIV-1 protease (vs 102), the “fold less potent than the syn isomer 102” value came to 3.5 fold.
As to `COc1ccc(S(=O)(=O)N(CC(C)C)C[C@@H](O)[C@H](Cc2ccccc2)NC(=O)O[C@H]2CCCOCOC2)cc1` [Inhibitor 3a, (1S,2R)-{1-Benzyl-2-hydroxy-3-[isobutyl(4-methoxybenzenesulfonyl)amino]propyl}carbamic acid (1S)-3,5-dioxacyclooctan-1-yl ester], affinity on HIV-1 protease (setting [1]) was put at a Ki of 0.15 ± 0.019 nM.
In the case of `COc1ccc(S(=O)(=O)N(CC(C)C)C[C@@H](O)[C@H](Cc2ccccc2)NC(=O)OC2COCCOCOCCOC2)cc1` [Inhibitor 3k, (1S,2R)-{1-Benzyl-2-hydroxy-3-[isobutyl(4-methoxybenzenesulfonyl)amino]propyl}carbamic acid 3,6,8,11-tetraoxacyclododecan-1-yl ester], the Ki at HIV-1 protease (setting [1]) was found to be 6.3 ± 0.57 nM. In addition, at HIV-1 protease, the “potency compared to 3i” value is recorded as “more than 2 fold”. Besides, the “fold potency enhancement compared to inhibitor 3j” value at HIV-1 protease (vs 3j) worked out at 5 fold. Also, the IC50 in the assay with HIV-1-LAI is more than 1000 nM.
Take `COc1ccc(S(=O)(=O)N(CC(C)C)C[C@@H](O)[C@H](Cc2ccccc2)NC(=O)OC2COCCS(=O)(=O)CCOC2)cc1` [Inhibitor 3l, (1S,2R)-{1-Benzyl-2-hydroxy-3-[isobutyl(4-methoxybenzenesulfonyl)amino]propyl}carbamic acid 3,9-dioxa-6-thiacyclodecan-1-yl 6,6-dioxide ester]: on HIV-1 protease (setting [1]), the Ki turned out to be 1.9 ± 0.2 nM. The “potency compared to 3i” value at HIV-1 protease was 9 fold. Besides, the IC50 with HIV-1-LAI is more than 1000 nM.
In turn, `COc1ccc(S(=O)(=O)N(CC(C)C)C[C@@H](O)[C@H](Cc2ccccc2)NC(=O)O[C@H]2CC3OCCO[C@@H]3C2)cc1` (stereo partly drawn) [Inhibitor 129, (1′S,2′R)-{1′-Benzyl-2′-hydroxy-3′-[isobutyl(4-methoxybenzenesulfonyl)amino]propyl} carbamic acid (1β,2β,4α)-1,2-(ethylenedioxy)cyclopent-4-yl ester] registered a Ki at HIV-1 protease (setting [2]) of 0.5 ± 0.04 nM.
